This is an account of results in patent publication US10112949B2, “6,7-dihydropyrazolo[1,5-a]pyrazin-4(5H)-one compounds and their use as negative allosteric modulators of mGluR2 receptors” (Janssen Pharmaceutica NV, priority 2014, dated 2018).

The target in one data set is human mGlu2 receptor (Homo sapiens, UniProt Q14416). Description: [35S]GTPγS binding assay, negative allosteric modulation of mGluR2.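 As to all read-outs here: membranes from CHO cells expressing the receptor, compound with glutamate near EC80 (60 µM), 30 min preincubation then 30 min label uptake at 30 °C, percent of control glutamate response.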 The settings on record: for Emax: read-out: GTPγS - hmGluR2 anGT Emax.
Another data set has as its system rats. Put plainly: Reversal of the effect of the mGluR2 PAM JNJ-42153605-induced inhibition of scopolamine-induced hyperlocomotion. It is filed as in vivo, rat. The conditions noted are these: for ED50: rat, route PO (route cell empty for Co. No. 22, 25, 18, 19, 29), criterion total distance >1500 cm, read-out: ED50 SCOP JNJ-42153605. How it is done: 2) Reversal of the Effect of the mGluR2 PAM JNJ-42153605-Induced Inhibition of Scopolamine-Induced Hyperlocomotion Apparatus
Motor activity was measured in microprocessor-based motor activity arenas (closed gray PVC cylinders with a height of 39 cm and a diameter of 31 cm). Each arena was placed on an infrared LED (8×8 LEDs) lit box (white PVC squared box; 40×40 cm^2; height 12.5 cm. An infrared-sensitive tube camera and a white light source were mounted to the ceiling above the observation chamber to track the animal. The total distance traveled (cm) was recorded and analyzed using the Noldus Ethovision XT Video Tracking System (Version 7.0.418; Noldus, Wageningen, The Netherlands). The intensity of the light within the activity cages (measured in the centre at the level of the floor) ranged between 4 and 8 LUX.
The rats were pretreated with test compound or vehicle at 60 min before the start of the activity recordings and placed into individual cages. The rats were challenged with JNJ-42153605 (3-(cyclopropylmethyl)-7-(4-phenylpiperidin-1-yl)-8-(trifluoromethyl)-[1,2,4]triazolo[4,3-a]pyridine; WO2010/130424; Cid et al. J. Med. Chem. 2012, 55, 8770-8789) (20 mg/kg, i.v.) 30 min before the start of the activity recording combined with scopolamine (0.16 mg/kg, i.v.) just before the start of the activity measurements. Immediately after the injection of scopolamine, the rats were placed into the activity monitors and total distance travelled over the first 30 min was measured.
Solvent-Pretreated Control Rats.
For reversal of the inhibitory effect of JNJ-42153605 on the scopolamine-induced hyperlocomotion, the following all-or-none criteria were adopted: (1) reversal: total distance >1500 cm.

The next data set can be described thus: Induction of mydriasis. The conditions noted are these: Wiga, in vivo, rat, route PO; for ED50: maximum pupil diameter >25 units over 1, 2 or 3 h post-administration, read-out: ED50 MYD Test 2. How it is done: 3) Induction of Mydriasis
The pupil diameter of Wiga rats was measured with a microscopic micrometer (1 unit= 1/24 mm). Criteria for drug-induced effects: pupil diameter >25 units for mydriasis (in controls: 1.9%) 1 h post-administration of the test compound (test 1) or 1, 2 or 3 h post-administration of the test compound (test 2, wherein the maximum pupil diameter over the full 3 h period is reported).

For data set [1], the system named is apomorphine-challenged rats. Description: Reversal of LY-404039-induced decrease of palpebral opening in apomorphine-challenged rats. It is filed as in vivo, rat. The settings on record: for ED50: rat, criterion cumulative palpebral opening score >26, read-out: ED50 APO LY-404039. How it is done:
B) In Vivo Pharmacology 1) Reversal of LY-404039-Induced Decrease of Palpebral Opening in Apomorphine-Challenged Rats.
Male Wiga Wistar rats (Crl:WI; Charles River Germany; 220±40 g) were housed under standard laboratory conditions (21±2° C.; 50-65% relative humidity; light-dark cycle set at 12 h; lights on at 6.00 h) and fasted overnight prior to the start of the experiments (tap water remained available ad libitum). During the test period, they were housed in individual cages. Palpebral opening was scored every 5 min over the first hour after injection of apomorphine (1.0 mg/kg, i.v.) in animals either pretreated or not pretreated with LY-404039 (2.5 mg/kg, s.c.) at 1 h prior to the apomorphine injection. The animals were also pretreated with test compound or solvent at a predefined interval before apomorphine challenge. The score system was: (5) exophthalmos, (4) wide open, (3) open for three-quarters, (2) half open, (1) open for one-quarter, (0) closed. The scores for palpebral opening were cumulated over the 60-min observation period.

The mark [2] stands for this setting: historical solvent-pretreated control rats, first 30 min.
[3] abbreviates: control rats, scores cumulated over 60 min.

Read-outs that look alike come from different tables or passages of the source.

Sequence of human mGlu2 receptor (Q14416 19-872): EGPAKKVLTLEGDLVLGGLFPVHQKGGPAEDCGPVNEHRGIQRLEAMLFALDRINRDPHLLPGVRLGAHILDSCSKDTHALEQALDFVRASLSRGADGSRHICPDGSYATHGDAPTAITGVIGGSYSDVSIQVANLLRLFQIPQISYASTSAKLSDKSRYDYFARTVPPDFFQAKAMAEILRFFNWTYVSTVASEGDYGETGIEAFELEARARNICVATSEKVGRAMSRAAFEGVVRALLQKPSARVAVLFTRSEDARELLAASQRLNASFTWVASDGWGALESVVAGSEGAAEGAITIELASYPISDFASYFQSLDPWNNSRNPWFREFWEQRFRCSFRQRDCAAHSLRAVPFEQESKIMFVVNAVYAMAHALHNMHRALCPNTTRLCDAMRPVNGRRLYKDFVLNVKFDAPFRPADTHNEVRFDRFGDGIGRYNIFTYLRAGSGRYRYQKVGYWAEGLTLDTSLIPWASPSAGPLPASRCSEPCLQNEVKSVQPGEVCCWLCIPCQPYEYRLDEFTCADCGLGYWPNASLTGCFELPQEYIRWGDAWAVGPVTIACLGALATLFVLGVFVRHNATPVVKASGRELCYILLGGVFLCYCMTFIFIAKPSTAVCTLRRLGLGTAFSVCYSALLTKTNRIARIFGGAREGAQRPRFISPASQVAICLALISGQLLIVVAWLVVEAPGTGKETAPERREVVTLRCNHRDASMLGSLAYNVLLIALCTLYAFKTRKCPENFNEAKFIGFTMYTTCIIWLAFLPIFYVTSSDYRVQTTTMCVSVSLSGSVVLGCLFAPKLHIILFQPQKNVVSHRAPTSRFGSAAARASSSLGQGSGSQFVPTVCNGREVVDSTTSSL
Description for human mGlu2 receptor: Here we describe the use of the [^35S]GTPγS binding assay using membranes from cells transfected with the human mGlu2 receptor and adapted from Schaffhauser et al. (Molecular Pharmacology, 2003, 4:798-810) for the detection of the negative allosteric modulation (NAM) properties of the compounds of this invention.
CHO-cells were cultured to pre-confluence and stimulated with 5 mM butyrate for 24 h. Cells were then collected by scraping in PBS and cell suspension was centrifuged (10 min at 4000 RPM in benchtop centrifuge). Supernatant was discarded and pellet gently resuspended in 50 mM Tris-HCl, pH 7.4 by mixing with an Ultra Turrax homogenizer. The suspension was centrifuged at 12,400 RPM (Sorvall F14S-6x250Y) for 10 minutes and the supernatant discarded. The pellet was homogenized in 5 mM Tris-HCl, pH 7.4 using an Ultra Turrax homogenizer and centrifuged again (13,000 RPM, 20 min, 4° C.). The final pellet was resuspended in 50 mM Tris-HCl, pH 7.4 and stored at −80° C. in appropriate aliquots before use. Protein concentration was determined by the Bradford method (Bio-Rad, USA) with bovine serum albumin as standard.
Measurement of mGluR2 negative allosteric modulatory activity of test compounds was performed as follows. Test compounds and glutamate were diluted in assay buffer containing 10 mM HEPES acid, 10 mM HEPES salt, pH 7.4, 100 mM NaCl, 3 mM MgCl2 and 10 μM GDP. Human mGlu2 receptor-containing membranes were thawed on ice and diluted in assay buffer supplemented with 18 μg/ml saponin. Membranes were pre-incubated with compound together with a predefined (˜EC80) concentration of glutamate (60 μM) for 30 min at 30° C. After addition of [^35S]GTPγS (f.c. 0.1 nM), assay mixtures were shaken briefly and further incubated to allow [^35S]GTPγS incorporation on activation (30 minutes, 30° C.). Final assay mixtures contained 7 μg of membrane protein in 10 mM HEPES acid, 10 mM HEPES salt, pH 7.4, 100 mM NaCl, 3 mM MgCl2, 10 μM GDP and 10 μg/ml saponin. Total reaction volume was 200 μl. Reactions were terminated by rapid filtration through Unifilter-96 GF/B plates (Perkin Elmer, Massachusetts, USA) using a 96-well filtermate universal harvester. Filters were washed 6 times with ice-cold 10 mM NaH2PO4/10 mM Na2HPO4, pH 7.4. Filters were then air-dried and 30 μl of liquid scintillation cocktail (Microscint-O) was added to each well. Membrane-bound radioactivity was counted in a Topcount.
Data were calculated as % of the control glutamate response, defined as the response that is generated upon addition of an EC80-equivalent concentration of glutamate. Sigmoid concentration-response curves plotting these percentages versus the log concentration of the test compound were analyzed using non-linear regression analysis. The concentration producing half-maximal inhibition was calculated as the IC50. The pIC50 values were calculated as the −log IC50, when the IC50 is expressed in M. Emax is defined as the relative maximal effect (i.e. maximal % inhibition relative to the control glutamate response).

With `Cc1cc(C#Cc2cnn3c2C(=O)N(c2ccc(C(F)(F)F)cc2)C[C@@H]3C)ccn1` [compound 9], at human mGlu2 receptor, the IC50 was 8.71 nM and the Emax stood at 107%.
As for `C[C@H]1CN(c2ccc(C(F)(F)F)cc2)C(=O)c2c(C#Cc3cnc(N)cc3CO)cnn21` [compound 29], at human mGlu2 receptor, the IC50 is 2.95 nM and the Emax stood at 106%. Besides, in the data set on rats, the ED50 is more than 0.63 mg/kg.
Consider `C[C@H]1CN(c2ccc(C(F)(F)F)cc2)C(=O)c2c(C#Cc3cnc(N)c(CF)c3)cnn21` [compound 21], for which, on human mGlu2 receptor, the IC50 is 41.7 nM and the Emax came out at 102%.
Taken in the same sequence, the figures for `Cc1ccc(C#Cc2cnn3c2C(=O)N(c2ccc(C(F)(F)F)cc2)C[C@@H]3C)cn1` [compound 11] were 10.2 nM and 103%.
As for `C[C@H]1CN(c2ccc(C(F)(F)F)cc2)C(=O)c2c(C#Cc3ccc(N)nc3)cnn21` [compound 1], on human mGlu2 receptor, the IC50 is 1.58 nM. Also, the Emax on human mGlu2 receptor came to 106%. In addition, the ED50 in the data set with rats was 0.17 mg/kg; in the data set “Induction of mydriasis” it was more than 40 mg/kg; in data set [1] (route PO), 0.08 mg/kg; in data set [1] (route SC), 0.06 mg/kg. Moreover, the ED50 at 1 h in “Induction of mydriasis” (pupil diameter >25 units 1 h post-administration, read-out: ED50 MYD Test 1) was more than 10 mg/kg.
Consider `C[C@H]1CN(c2ccc(C(F)(F)F)c(CF)n2)C(=O)c2c(C#Cc3ccc(N)nc3)cnn21` [compound 19], for which, at human mGlu2 receptor, the IC50 is 2.14 nM and the Emax is 104%. For the same compound, in the data set with rats, the ED50 is more than 0.63 mg/kg.
For the compound `CNc1ccc(C#Cc2cnn3c2C(=O)N(c2ccc(C(F)(F)F)c(Cl)n2)C[C@@H]3C)cn1` [compound 31], on human mGlu2 receptor, the IC50 was 8.71 nM and the Emax was found to be 111%.
As to `C[C@H]1CN(c2ccc(C(F)(F)F)cc2)C(=O)c2c(C#Cc3cccnc3N)cnn21` [compound 17], on human mGlu2 receptor, the IC50 is 14.8 nM and the Emax worked out at 105%.
On to `C[C@H]1CN(c2ccc(Cl)c(Cl)c2)C(=O)c2c(C#Cc3ccc(F)nc3)cnn21` [compound 7], for which, on human mGlu2 receptor, the IC50 was 6.76 nM and the Emax is 105%.
In the case of `CNc1ccc(C#Cc2cnn3c2C(=O)N(c2ccc(C(F)(F)F)c(OC)n2)C[C@@H]3C)cn1` [compound 32], on human mGlu2 receptor, the IC50 was 9.33 nM and the Emax came to 106%.
Taken in the same sequence, the figures for `C[C@H]1CN(c2ccc(C(F)(F)F)cn2)C(=O)c2c(C#Cc3ccc(N)nc3)cnn21` [compound 4] were 2.4 nM and 103%.
`CNc1ncccc1C#Cc1cnn2c1C(=O)N(c1ccc(C(F)(F)F)cc1)C[C@@H]2C` [compound 24]: on human mGlu2 receptor, the IC50 is 15.8 nM and the Emax stood at 99%.
For the compound `C[C@H]1CN(c2ccc(C(F)(F)F)c(Cl)c2)C(=O)c2c(C#Cc3ccc(N)nc3)cnn21` [compound 13], on human mGlu2 receptor, the IC50 is 1.1 nM and the Emax was 108%. Further, in the data set on rats, the ED50 amounted to 0.028 mg/kg. For the same compound, the ED50 in the data set “Induction of mydriasis” is more than 40 mg/kg.
As to `C[C@H]1CN(c2ccc(C(F)(F)F)c(F)c2)C(=O)c2c(C#Cc3ccc(N)nc3)cnn21` [compound 18], on human mGlu2 receptor, the IC50 was 2.69 nM and the Emax was 107%. Also, the ED50 with rats is 0.13 mg/kg.
Consider `COCc1cncc(C#Cc2cnn3c2C(=O)N(c2ccc(C(F)(F)F)cc2)C[C@@H]3C)c1` [compound 27], for which, at human mGlu2 receptor, the IC50 was 97.7 nM and the Emax stood at 106%.
For `C[C@H]1CN(c2ccc(C(F)(F)F)cc2)C(=O)c2c(C#Cc3ccc(S(=O)(=O)F)cc3)cnn21` [compound 35], at human mGlu2 receptor, the IC50 was 42.7 nM and the Emax is 108%.
Taken in the same sequence, the figures for `C[C@H]1CN(c2ccc(C(F)(F)F)cc2)C(=O)c2c(C#Cc3ccccc3)cnn21` [compound 5] were 4.07 nM and 105%.
For the compound `COc1ccc(C#Cc2cnn3c2C(=O)N(c2ccc(Cl)c(Cl)c2)C[C@@H]3C)cn1` [compound 6], at human mGlu2 receptor, the IC50 was 5.62 nM and the Emax came out at 106%.
With `C[C@H]1CN(c2ccc(Cl)c(Cl)c2)C(=O)c2c(C#Cc3ccc(N(C)C)nc3)cnn21` [compound 12], on human mGlu2 receptor, the IC50 was 33.1 nM and the Emax was determined as 107%.
As to `CN1[C@@H]2C[C@@H](OC(=O)[C@H](CO)c3ccccc3)C[C@H]1[C@@H]1O[C@@H]12` [Scopolamine, scopolamine, reference compound], in the data set with rats (setting [2]), the “Total distance >1500 cm (%)” value came to 100%; the “Total distance >4400 cm (%)” value was 95.8%; the “Total distance travelled, Median (cm)” value is reported as 7246 cm.
For `C[C@H]1CN(c2ccc(Cl)c(Cl)c2)C(=O)c2c(C#Cc3ccc(N)nc3)cnn21` [compound 2], at human mGlu2 receptor, the IC50 was 1.12 nM and the Emax was 105%.
For `C[C@H]1CN(c2ccc(C(F)(F)F)cc2)C(=O)c2c(C#Cc3ccnc(N)c3)cnn21` [compound 10], on human mGlu2 receptor, the IC50 was 10 nM and the Emax amounted to 105%.
With `CNc1ccc(C#Cc2cnn3c2C(=O)N(c2ccc(Cl)c(Cl)c2)C[C@@H]3C)cn1` [compound 3], on human mGlu2 receptor, the IC50 is 2.24 nM and the Emax came out at 105%.
In the case of `COc1ccc(N2C[C@H](C)n3ncc(C#Cc4ccc(N)nc4)c3C2=O)cc1Cl` [compound 8], at human mGlu2 receptor, the IC50 was 8.51 nM and the Emax turned out to be 107%.
Consider `COCc1cc(C#Cc2cnn3c2C(=O)N(c2ccc(C(F)(F)F)cc2)C[C@@H]3C)cnc1N` [compound 20], for which, on human mGlu2 receptor, the IC50 is 24 nM and the Emax came to 102%.
Regarding `C[C@H]1CN(c2ccc(C(F)(F)F)cc2)C(=O)c2c(C#Cc3cnc(N)cc3CF)cnn21` [compound 23], at human mGlu2 receptor, the IC50 is 2.75 nM and the Emax stood at 106%.
For the compound `C[C@H]1CN(c2ccc(C(F)(F)F)cc2)C(=O)c2c(C#Cc3cncc(CO)c3)cnn21` [compound 28], at human mGlu2 receptor, the IC50 is 53.7 nM and the Emax was 101%.
In the same order, the values of `C[C@H]1CN(c2ccc(C(F)(F)F)cc2)C(=O)c2c(C#Cc3cccc(S(=O)(=O)F)c3)cnn21` [compound 34] are 14.5 nM and 110%.
Turning to `COCc1cc(N)ncc1C#Cc1cnn2c1C(=O)N(c1ccc(C(F)(F)F)cc1)C[C@@H]2C` [compound 25], on human mGlu2 receptor, the IC50 was 2.24 nM and the Emax is 105%. For the same compound, in the data set with rats, the ED50 was 0.08 mg/kg.
With `C[C@H]1CN(c2ccc(C(F)(F)F)cc2)C(=O)c2c(C#Cc3cncc(CF)c3)cnn21` [compound 26], at human mGlu2 receptor, the IC50 is 37.2 nM and the Emax amounted to 108%.
With `C[C@H]1CN(c2ccc(C(F)(F)F)c(Cl)c2)C(=O)c2c(C#Cc3cnc(N)cc3CO)cnn21` [compound 22], on human mGlu2 receptor, the IC50 was 0.832 nM and the Emax turned out to be 106%. For the same compound, the ED50 with rats was more than 0.63 mg/kg.
On to `COc1nc(N2C[C@H](C)n3ncc(C#Cc4ccc(N)nc4)c3C2=O)ccc1C(F)(F)F` [compound 33], for which, at human mGlu2 receptor, the IC50 is 2.51 nM and the Emax worked out at 109%.
With `C[C@H]1CN(c2ccc(C(F)C(F)(F)F)cc2)C(=O)c2c(C#Cc3ccc(N)nc3)cnn21` (some centres unmarked) [compound 16], at human mGlu2 receptor, the IC50 is 7.08 nM and the Emax was 104%.
For `CN1CCc2cccc3c2[C@H]1Cc1ccc(O)c(O)c1-3` [Apomorphine alone, apomorphine], the “Palpebral opening score, Median score” value in data set [1] (control rats, apomorphine 1.0 mg/kg i.v., LY-404039 2.5 mg/kg s.c., scores cumulated over 60 min) is recorded as 43. Moreover, in data set [1] (setting [3]), the “Palpebral opening score, Occurrence score >26 (%)” value is listed as 99.5%. Besides, the “Palpebral opening score, Occurrence score >34 (%)” value in data set [1] (setting [3]) was determined as 95.9%; in data set [1] (control rats, scores cumulated over 60 min, listed as apomorphine alone), 95.5%.
